Data published in publication PMC12454493, “Insight on novel sulfamoylphenyl pyrazole derivatives as anticancer carbonic anhydrase inhibitors” (Molecular Diversity, 2024).
Values joined by “and” are separate entries in the source; they are usually repeats but may differ in a detail not shown here. Identical values can stand only once.

Key:
CCRF-CEM = assay: NCI-60 one-dose SRB screen (Leukemia); format: cell-based; details: Homo sapiens, single dose 10 µM, 48 h, read-out: Growth inhibition percent (GI %)
HL-60(TB) = assay: NCI-60 one-dose SRB screen (Leukemia); format: cell-based; details: Homo sapiens, single dose 10 µM, 48 h, read-out: Growth inhibition percent (GI %)
K-562 = assay: NCI-60 one-dose SRB screen (Leukemia); format: cell-based; details: Homo sapiens, K562, single dose 10 µM, 48 h, read-out: Growth inhibition percent (GI %)
MOLT-4 = assay: NCI-60 one-dose SRB screen (Leukemia); format: cell-based; details: Homo sapiens, single dose 10 µM, 48 h, read-out: Growth inhibition percent (GI %)
RPMI-8226 = assay: NCI-60 one-dose SRB screen (Leukemia); format: cell-based; details: Homo sapiens, single dose 10 µM, 48 h, read-out: Growth inhibition percent (GI %)
SR = assay: NCI-60 one-dose SRB screen (Leukemia); format: cell-based; details: Homo sapiens, single dose 10 µM, 48 h, read-out: Growth inhibition percent (GI %)
A549/ATCC = assay: NCI-60 one-dose SRB screen (Non-Small Cell Lung Cancer); format: cell-based; details: Homo sapiens, single dose 10 µM, 48 h, read-out: Growth inhibition percent (GI %)
EKVX = assay: as above; format: cell-based; details: Homo sapiens, single dose 10 µM, 48 h, read-out: Growth inhibition percent (GI %)
HOP-62 = assay: as above; format: cell-based; details: Homo sapiens, single dose 10 µM, 48 h, read-out: Growth inhibition percent (GI %)
HOP-92 = assay: as above; format: cell-based; details: Homo sapiens, single dose 10 µM, 48 h, read-out: Growth inhibition percent (GI %)
NCI-H226 = assay: as above; format: cell-based; details: Homo sapiens, single dose 10 µM, 48 h, read-out: Growth inhibition percent (GI %)
NCI-H23 = assay: as above; format: cell-based; details: Homo sapiens, single dose 10 µM, 48 h, read-out: Growth inhibition percent (GI %)
NCI-H322M = assay: as above; format: cell-based; details: Homo sapiens, single dose 10 µM, 48 h, read-out: Growth inhibition percent (GI %)
NCI-H460 = assay: as above; format: cell-based; details: Homo sapiens, single dose 10 µM, 48 h, read-out: Growth inhibition percent (GI %)
NCI-H522 = assay: as above; format: cell-based; details: Homo sapiens, single dose 10 µM, 48 h, read-out: Growth inhibition percent (GI %)
COLO 205 = assay: NCI-60 one-dose SRB screen (Colon Cancer); format: cell-based; details: Homo sapiens, single dose 10 µM, 48 h, read-out: Growth inhibition percent (GI %)
HCC-2998 = assay: NCI-60 one-dose SRB screen (Colon Cancer); format: cell-based; details: Homo sapiens, single dose 10 µM, 48 h, read-out: Growth inhibition percent (GI %)
HCT-116 = assay: NCI-60 one-dose SRB screen (Colon Cancer); format: cell-based; details: Homo sapiens, single dose 10 µM, 48 h, read-out: Growth inhibition percent (GI %)
HCT-15 = assay: NCI-60 one-dose SRB screen (Colon Cancer); format: cell-based; details: Homo sapiens, single dose 10 µM, 48 h, read-out: Growth inhibition percent (GI %)
HT29 = assay: NCI-60 one-dose SRB screen (Colon Cancer); format: cell-based; details: Homo sapiens, HT-29, single dose 10 µM, 48 h, read-out: Growth inhibition percent (GI %)
KM12 = assay: NCI-60 one-dose SRB screen (Colon Cancer); format: cell-based; details: Homo sapiens, single dose 10 µM, 48 h, read-out: Growth inhibition percent (GI %)
SW-620 = assay: NCI-60 one-dose SRB screen (Colon Cancer); format: cell-based; details: Homo sapiens, single dose 10 µM, 48 h, read-out: Growth inhibition percent (GI %)
SF-268 = assay: NCI-60 one-dose SRB screen (CNS Cancer); format: cell-based; details: Homo sapiens, single dose 10 µM, 48 h, read-out: Growth inhibition percent (GI %)
SF-295 = assay: NCI-60 one-dose SRB screen (CNS Cancer); format: cell-based; details: Homo sapiens, single dose 10 µM, 48 h, read-out: Growth inhibition percent (GI %)
SF-539 = assay: NCI-60 one-dose SRB screen (CNS Cancer); format: cell-based; details: Homo sapiens, single dose 10 µM, 48 h, read-out: Growth inhibition percent (GI %)
SNB-19 = assay: NCI-60 one-dose SRB screen (CNS Cancer); format: cell-based; details: Homo sapiens, single dose 10 µM, 48 h, read-out: Growth inhibition percent (GI %)
SNB-75 = assay: NCI-60 one-dose SRB screen (CNS Cancer); format: cell-based; details: Homo sapiens, single dose 10 µM, 48 h, read-out: Growth inhibition percent (GI %)
U251 = assay: NCI-60 one-dose SRB screen (CNS Cancer); format: cell-based; details: Homo sapiens, U-251, single dose 10 µM, 48 h, read-out: Growth inhibition percent (GI %)
M14 = assay: NCI-60 one-dose SRB screen (Melanoma); format: cell-based; details: Homo sapiens, single dose 10 µM, 48 h, read-out: Growth inhibition percent (GI %)
MALME-3M = assay: NCI-60 one-dose SRB screen (Melanoma); format: cell-based; details: Homo sapiens, single dose 10 µM, 48 h, read-out: Growth inhibition percent (GI %)
MDA-MB-435 = assay: NCI-60 one-dose SRB screen (Melanoma); format: cell-based; details: Homo sapiens, single dose 10 µM, 48 h, read-out: Growth inhibition percent (GI %)
SK-MEL-28 = assay: NCI-60 one-dose SRB screen (Melanoma); format: cell-based; details: Homo sapiens, single dose 10 µM, 48 h, read-out: Growth inhibition percent (GI %)
SK-MEL-5 = assay: NCI-60 one-dose SRB screen (Melanoma); format: cell-based; details: Homo sapiens, single dose 10 µM, 48 h, read-out: Growth inhibition percent (GI %)
UACC-257 = assay: NCI-60 one-dose SRB screen (Melanoma); format: cell-based; details: Homo sapiens, single dose 10 µM, 48 h, read-out: Growth inhibition percent (GI %)
UACC-62 = assay: NCI-60 one-dose SRB screen (Melanoma); format: cell-based; details: Homo sapiens, single dose 10 µM, 48 h, read-out: Growth inhibition percent (GI %)
786-0 = assay: NCI-60 one-dose SRB screen (Renal Cancer); format: cell-based; details: Homo sapiens, single dose 10 µM, 48 h, read-out: Growth inhibition percent (GI %)
A498 = assay: NCI-60 one-dose SRB screen (Renal Cancer); format: cell-based; details: Homo sapiens, single dose 10 µM, 48 h, read-out: Growth inhibition percent (GI %)
ACHN = assay: NCI-60 one-dose SRB screen (Renal Cancer); format: cell-based; details: Homo sapiens, single dose 10 µM, 48 h, read-out: Growth inhibition percent (GI %)
CAKI-1 = assay: NCI-60 one-dose SRB screen (Renal Cancer); format: cell-based; details: Homo sapiens, single dose 10 µM, 48 h, read-out: Growth inhibition percent (GI %)
RXF 393 = assay: NCI-60 one-dose SRB screen (Renal Cancer); format: cell-based; details: Homo sapiens, single dose 10 µM, 48 h, read-out: Growth inhibition percent (GI %)
SN12C = assay: NCI-60 one-dose SRB screen (Renal Cancer); format: cell-based; details: Homo sapiens, single dose 10 µM, 48 h, read-out: Growth inhibition percent (GI %)
TK-10 = assay: NCI-60 one-dose SRB screen (Renal Cancer); format: cell-based; details: Homo sapiens, single dose 10 µM, 48 h, read-out: Growth inhibition percent (GI %)
UO-31 = assay: NCI-60 one-dose SRB screen (Renal Cancer); format: cell-based; details: Homo sapiens, single dose 10 µM, 48 h, read-out: Growth inhibition percent (GI %)
hCA IX = hCA IX (Homo sapiens, UniProt Q16790); assay: CA inhibitory activity, spectrophotometric p-NPA assay; format: biochemical; details: p-NPA substrate, pH 7.5, 25 °C, triplicate; read-out: IC50 (µM) ± SD hCA IX
Description: (§1) The software used to calculate CA IC50 along with statistical analysis of the results is GraphPad Prism 9.00. Results were estimated by using one-way ANOVA and the Bonferroni’s multiple comparisons posthoc test was performed (P < 0.05) [46]
Carbonic anhydrase inhibitory activity:
(§2) The spectrophotometric assay was conducted in HEPES-Tris buffer, NaCl of pH 7.5 (20mM) at 25◦C. Each inhibitory well-consisted of 50 μL of assay buffer solution, 20 μL of hCA enzyme solution (20 ng/μL in Assay Buffer), and 50 μL of test compound in HPLC grade DMSO (maintain 10% of the final concentration). The mixture solution was
(§3) Substrate p-nitrophenyl acetate (p-NPA) (0.7mM) was prepared in HPLC grade methanol and the reaction was started by adding 20 μL to a well in a 96-well-plate. The amount of product formed was measured for 30 min continuously at 1 min intervals at 400 nm in a 96-well-plate using xMARK microplate spectrophotometer, Bio-Rad (USA). The activity of the controlled compound was taken as 100%. All experiments were carried out in triplicates of each used concentration, and results are represented as a

hCA XII = hCA XII (Homo sapiens, UniProt O43570); assay: as above; format: biochemical; details: p-NPA substrate, pH 7.5, 25 °C, triplicate; read-out: IC50 (µM) ± SD hCA XII
Sequence of hCA XII (O43570 25-354): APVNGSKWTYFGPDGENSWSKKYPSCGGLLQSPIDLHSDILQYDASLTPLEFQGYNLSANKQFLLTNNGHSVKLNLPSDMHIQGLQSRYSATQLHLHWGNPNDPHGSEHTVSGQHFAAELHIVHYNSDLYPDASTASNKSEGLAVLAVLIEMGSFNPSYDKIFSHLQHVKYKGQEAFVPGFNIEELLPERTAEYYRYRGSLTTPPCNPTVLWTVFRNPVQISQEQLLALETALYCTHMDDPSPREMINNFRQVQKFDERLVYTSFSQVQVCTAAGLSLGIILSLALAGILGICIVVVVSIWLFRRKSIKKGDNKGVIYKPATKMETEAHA
Description: as §1
Carbonic anhydrase inhibitory activity:
as §2, §3

In the case of `COc1ccc(-c2nn(-c3ccc(S(N)(=O)=O)cc3)cc2C(=O)OCC(=O)Nc2ccc(S(N)(=O)=O)cc2)cc1` [Compound 4c, 2-Oxo-2-[(4-sulfamoylphenyl)amino] ethyl 3-(4-methoxyphenyl)-1-(4-sulfamoylphenyl)-1H-pyrazole-4-carboxylate], the inhibition at 10 µM (CCRF-CEM) is reported as < 5%, the inhibition at 10 µM (HL-60(TB)) is reported as 13.9% and the inhibition at 10 µM (K-562) is reported as 9.61%. The inhibition at 10 µM (MOLT-4) was < 5%, the inhibition at 10 µM (RPMI-8226) was 9.19% and the inhibition at 10 µM (SR) was < 5%. The inhibition at 10 µM (A549/ATCC) was < 5%, the inhibition at 10 µM (EKVX) was < 5% and the inhibition at 10 µM (HOP-62) was < 5%. The inhibition at 10 µM (HOP-92) was < 5%, the inhibition at 10 µM (NCI-H226) was < 5% and the inhibition at 10 µM (NCI-H23) was < 5%. For the same compound, the inhibition at 10 µM (NCI-H322M) was < 5%, the inhibition at 10 µM (NCI-H460) was < 5% and the inhibition at 10 µM (NCI-H522) was < 5%. For the same compound, the inhibition at 10 µM (COLO 205) was < 5%, the inhibition at 10 µM (HCC-2998) was < 5% and the inhibition at 10 µM (HCT-116) was 37.5%. The inhibition at 10 µM (HCT-15) was < 5%, the inhibition at 10 µM (HT29) was < 5% and the inhibition at 10 µM (KM12) was < 5%. For the same compound, the inhibition at 10 µM (SW-620) was < 5%, the inhibition at 10 µM (SF-268) was < 5% and the inhibition at 10 µM (SF-295) was < 5%. The inhibition at 10 µM (SF-539) was < 5%, the inhibition at 10 µM (SNB-19) was < 5% and the inhibition at 10 µM (SNB-75) was 28.7%. The inhibition at 10 µM (U251) was < 5%, the inhibition at 10 µM (M14) was 43.3% and the inhibition at 10 µM (MALME-3M) was < 5%. For the same compound, the inhibition at 10 µM (MDA-MB-435) was < 5%, the inhibition at 10 µM (SK-MEL-28) was < 5% and the inhibition at 10 µM (SK-MEL-5) was < 5%. The inhibition at 10 µM (UACC-257) was < 5%, the inhibition at 10 µM (UACC-62) was < 5% and the inhibition at 10 µM (786-0) was 28.9%. For the same compound, the inhibition at 10 µM (A498) was < 5%, the inhibition at 10 µM (ACHN) was < 5% and the inhibition at 10 µM (CAKI-1) was 8.36%. The inhibition at 10 µM (RXF 393) was < 5%, the inhibition at 10 µM (SN12C) was < 5% and the inhibition at 10 µM (TK-10) was < 5%. The inhibition at 10 µM (UO-31) was 11.9%, the IC50 (hCA IX) was 0.17 µM and 0.175 µM and the IC50 (hCA XII) was 0.41 µM and 0.415 µM.
